This note sets out measurements from ChEMBL document CHEMBL4354830, “Discovery of Benzo[cd]indol-2(1H)-ones and Pyrrolo[4,3,2-de]quinolin-2(1H)-ones as Bromodomain and Extra-Terminal Domain (BET) Inhibitors with Selectivity for the First Bromodomain with Potential High Efficiency against Acute Gouty Arthritis” (J Med Chem, 2019).

Molecules are shown by their SMILES.

In series [1] the target is T1, Bromodomain-containing protein 4 (Homo sapiens, UniProt O60885). Description: Binding affinity to recombinant human N-terminal His-tagged BRD4 BD1 (44 to 170 residues) expressed in Escherichia coli assessed as change in melting temperature at 10 uM by SYPRO Orange based differential scanning fluorimetry.
In series [2] the target is T1, Bromodomain-containing protein 4. Description: Displacement of tetra-acetylated histone H4 peptide (1-21) from recombinant human N-terminal His-tagged BRD4 BD1 (44 to 170 residues) expressed in Escherichia coli assessed as protein activity at 2 uM incubated for 30 mins followed by further incubation with tetra-acetylated histone H4 peptide (1-21) for 30 mins by Alphascreen assay. (In general: Bead proximity is the source of the signal in Alpha formats.)

Series [3] deals with T2, Bromodomain-containing protein 9 (Homo sapiens) (UniProt Q9H8M2).
T2 sequence (whole entry): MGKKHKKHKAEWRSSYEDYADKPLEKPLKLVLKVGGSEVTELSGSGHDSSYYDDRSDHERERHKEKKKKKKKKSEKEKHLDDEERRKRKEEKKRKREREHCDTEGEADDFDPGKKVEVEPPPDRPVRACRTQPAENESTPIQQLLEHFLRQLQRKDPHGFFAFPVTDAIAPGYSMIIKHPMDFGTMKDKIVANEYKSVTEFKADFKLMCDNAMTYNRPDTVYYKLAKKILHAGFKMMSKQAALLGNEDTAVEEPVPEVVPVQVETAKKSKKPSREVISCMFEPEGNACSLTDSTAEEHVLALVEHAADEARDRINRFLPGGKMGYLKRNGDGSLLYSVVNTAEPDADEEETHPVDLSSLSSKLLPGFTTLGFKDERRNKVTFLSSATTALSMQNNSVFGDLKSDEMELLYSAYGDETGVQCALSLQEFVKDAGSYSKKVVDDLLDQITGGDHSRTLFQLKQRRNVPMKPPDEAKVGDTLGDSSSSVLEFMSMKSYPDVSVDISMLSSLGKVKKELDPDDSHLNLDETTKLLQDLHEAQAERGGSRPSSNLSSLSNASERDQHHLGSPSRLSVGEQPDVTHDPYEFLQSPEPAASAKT
Description: Binding affinity to BRD9 BD1 (unknown origin) assessed as change in melting temperature at 10 uM by SYPRO Orange based differential scanning fluorimetry.

For series [4], the target named is Chromatin remodeling regulator CECR2 (Homo sapiens) (UniProt Q9BXF3). The series can be described thus: Binding affinity to CECR2 (unknown origin) assessed as change in melting temperature at 10 uM by SYPRO Orange based differential scanning fluorimetry. (DSF heats the sample and reads unfolding from a dye or from intrinsic fluorescence.)
Sequence of Chromatin remodeling regulator CECR2 (Homo sapiens) (Q9BXF3 whole entry, looked up): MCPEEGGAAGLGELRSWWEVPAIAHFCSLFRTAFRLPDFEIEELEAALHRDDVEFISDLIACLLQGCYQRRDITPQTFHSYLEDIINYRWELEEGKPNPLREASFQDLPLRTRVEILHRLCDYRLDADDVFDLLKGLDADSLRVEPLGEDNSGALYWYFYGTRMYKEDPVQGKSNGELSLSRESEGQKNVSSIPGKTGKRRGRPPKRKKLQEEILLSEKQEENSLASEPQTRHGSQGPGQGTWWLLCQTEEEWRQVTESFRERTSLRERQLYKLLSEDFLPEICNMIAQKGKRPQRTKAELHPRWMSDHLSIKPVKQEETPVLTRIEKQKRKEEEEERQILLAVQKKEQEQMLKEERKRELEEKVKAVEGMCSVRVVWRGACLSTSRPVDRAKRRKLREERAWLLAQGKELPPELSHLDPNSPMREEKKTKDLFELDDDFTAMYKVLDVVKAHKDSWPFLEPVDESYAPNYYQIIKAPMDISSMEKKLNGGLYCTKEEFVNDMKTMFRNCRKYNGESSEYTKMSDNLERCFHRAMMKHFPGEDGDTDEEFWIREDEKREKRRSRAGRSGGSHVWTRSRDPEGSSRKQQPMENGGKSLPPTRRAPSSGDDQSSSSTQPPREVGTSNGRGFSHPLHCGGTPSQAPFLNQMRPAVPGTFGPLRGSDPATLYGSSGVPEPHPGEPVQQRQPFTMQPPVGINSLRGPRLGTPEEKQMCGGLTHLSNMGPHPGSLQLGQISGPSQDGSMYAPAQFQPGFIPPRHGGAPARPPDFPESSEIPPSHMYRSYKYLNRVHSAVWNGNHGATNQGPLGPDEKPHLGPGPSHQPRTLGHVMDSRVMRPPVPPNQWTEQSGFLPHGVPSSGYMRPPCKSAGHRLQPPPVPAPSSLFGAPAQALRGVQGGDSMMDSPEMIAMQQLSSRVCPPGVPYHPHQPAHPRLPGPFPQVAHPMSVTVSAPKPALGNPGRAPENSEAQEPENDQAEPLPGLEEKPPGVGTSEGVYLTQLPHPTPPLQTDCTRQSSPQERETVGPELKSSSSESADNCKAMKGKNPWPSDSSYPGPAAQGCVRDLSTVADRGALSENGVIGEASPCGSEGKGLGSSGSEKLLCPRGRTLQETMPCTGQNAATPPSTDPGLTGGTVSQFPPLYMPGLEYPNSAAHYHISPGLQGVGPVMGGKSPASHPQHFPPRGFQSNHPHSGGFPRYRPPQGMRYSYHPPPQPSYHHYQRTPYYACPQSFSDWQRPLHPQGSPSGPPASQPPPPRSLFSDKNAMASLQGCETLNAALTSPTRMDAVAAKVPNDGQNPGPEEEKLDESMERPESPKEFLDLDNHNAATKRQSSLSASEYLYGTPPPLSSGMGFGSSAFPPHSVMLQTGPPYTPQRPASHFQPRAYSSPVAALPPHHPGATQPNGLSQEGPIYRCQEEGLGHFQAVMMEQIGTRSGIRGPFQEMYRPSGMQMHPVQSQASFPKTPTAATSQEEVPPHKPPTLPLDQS
Series [5] has as its target CREB-binding protein (Homo sapiens) (UniProt Q92793). Description: Binding affinity to CREBBP (unknown origin) assessed as change in melting temperature at 10 uM by SYPRO Orange based differential scanning fluorimetry.
Series [6] has as its target T1, Bromodomain-containing protein 4. The series can be described thus: Displacement of tetra-acetylated histone H4 peptide (1-21) from recombinant human N-terminal His-tagged BRD4 BD1 (44 to 170 residues) expressed in Escherichia coli incubated for 30 mins followed by further incubation with tetra-acetylated histone H4 peptide (1-21) for 30 mins by Alphascreen assay.

Series [7] shares this target. Description: Displacement of tetra-acetylated histone H4 peptide (1-21) from recombinant human N-terminal His-tagged BRD4 BD2 (349 to 460 residues) expressed in Escherichia coli incubated for 30 mins followed by further incubation with tetra-acetylated histone H4 peptide (1-21) for 30 mins by Alphascreen assay.
Series [8] deals with RAW264.7. The series can be described thus: Inhibition of LPS-induced NO overproduction in mouse RAW264.7 cells at 1 uM incubated for 2 hrs followed by LPS stimulation and measured after 22 hrs by Griess reagent based assay relative to control. The format is functional. The settings on record: Mus musculus, RAW264.7. (In general: Nitrite, measured by Griess reagent, commonly stands in for NO production.)

Series [9] in a line: Permeability of compound at 10 uM by PAMPA assay. The format is ADME. The settings on record: read-out: permeability.

Sequence of CREB-binding protein (Homo sapiens) (Q92793 2-2442 limits assumed): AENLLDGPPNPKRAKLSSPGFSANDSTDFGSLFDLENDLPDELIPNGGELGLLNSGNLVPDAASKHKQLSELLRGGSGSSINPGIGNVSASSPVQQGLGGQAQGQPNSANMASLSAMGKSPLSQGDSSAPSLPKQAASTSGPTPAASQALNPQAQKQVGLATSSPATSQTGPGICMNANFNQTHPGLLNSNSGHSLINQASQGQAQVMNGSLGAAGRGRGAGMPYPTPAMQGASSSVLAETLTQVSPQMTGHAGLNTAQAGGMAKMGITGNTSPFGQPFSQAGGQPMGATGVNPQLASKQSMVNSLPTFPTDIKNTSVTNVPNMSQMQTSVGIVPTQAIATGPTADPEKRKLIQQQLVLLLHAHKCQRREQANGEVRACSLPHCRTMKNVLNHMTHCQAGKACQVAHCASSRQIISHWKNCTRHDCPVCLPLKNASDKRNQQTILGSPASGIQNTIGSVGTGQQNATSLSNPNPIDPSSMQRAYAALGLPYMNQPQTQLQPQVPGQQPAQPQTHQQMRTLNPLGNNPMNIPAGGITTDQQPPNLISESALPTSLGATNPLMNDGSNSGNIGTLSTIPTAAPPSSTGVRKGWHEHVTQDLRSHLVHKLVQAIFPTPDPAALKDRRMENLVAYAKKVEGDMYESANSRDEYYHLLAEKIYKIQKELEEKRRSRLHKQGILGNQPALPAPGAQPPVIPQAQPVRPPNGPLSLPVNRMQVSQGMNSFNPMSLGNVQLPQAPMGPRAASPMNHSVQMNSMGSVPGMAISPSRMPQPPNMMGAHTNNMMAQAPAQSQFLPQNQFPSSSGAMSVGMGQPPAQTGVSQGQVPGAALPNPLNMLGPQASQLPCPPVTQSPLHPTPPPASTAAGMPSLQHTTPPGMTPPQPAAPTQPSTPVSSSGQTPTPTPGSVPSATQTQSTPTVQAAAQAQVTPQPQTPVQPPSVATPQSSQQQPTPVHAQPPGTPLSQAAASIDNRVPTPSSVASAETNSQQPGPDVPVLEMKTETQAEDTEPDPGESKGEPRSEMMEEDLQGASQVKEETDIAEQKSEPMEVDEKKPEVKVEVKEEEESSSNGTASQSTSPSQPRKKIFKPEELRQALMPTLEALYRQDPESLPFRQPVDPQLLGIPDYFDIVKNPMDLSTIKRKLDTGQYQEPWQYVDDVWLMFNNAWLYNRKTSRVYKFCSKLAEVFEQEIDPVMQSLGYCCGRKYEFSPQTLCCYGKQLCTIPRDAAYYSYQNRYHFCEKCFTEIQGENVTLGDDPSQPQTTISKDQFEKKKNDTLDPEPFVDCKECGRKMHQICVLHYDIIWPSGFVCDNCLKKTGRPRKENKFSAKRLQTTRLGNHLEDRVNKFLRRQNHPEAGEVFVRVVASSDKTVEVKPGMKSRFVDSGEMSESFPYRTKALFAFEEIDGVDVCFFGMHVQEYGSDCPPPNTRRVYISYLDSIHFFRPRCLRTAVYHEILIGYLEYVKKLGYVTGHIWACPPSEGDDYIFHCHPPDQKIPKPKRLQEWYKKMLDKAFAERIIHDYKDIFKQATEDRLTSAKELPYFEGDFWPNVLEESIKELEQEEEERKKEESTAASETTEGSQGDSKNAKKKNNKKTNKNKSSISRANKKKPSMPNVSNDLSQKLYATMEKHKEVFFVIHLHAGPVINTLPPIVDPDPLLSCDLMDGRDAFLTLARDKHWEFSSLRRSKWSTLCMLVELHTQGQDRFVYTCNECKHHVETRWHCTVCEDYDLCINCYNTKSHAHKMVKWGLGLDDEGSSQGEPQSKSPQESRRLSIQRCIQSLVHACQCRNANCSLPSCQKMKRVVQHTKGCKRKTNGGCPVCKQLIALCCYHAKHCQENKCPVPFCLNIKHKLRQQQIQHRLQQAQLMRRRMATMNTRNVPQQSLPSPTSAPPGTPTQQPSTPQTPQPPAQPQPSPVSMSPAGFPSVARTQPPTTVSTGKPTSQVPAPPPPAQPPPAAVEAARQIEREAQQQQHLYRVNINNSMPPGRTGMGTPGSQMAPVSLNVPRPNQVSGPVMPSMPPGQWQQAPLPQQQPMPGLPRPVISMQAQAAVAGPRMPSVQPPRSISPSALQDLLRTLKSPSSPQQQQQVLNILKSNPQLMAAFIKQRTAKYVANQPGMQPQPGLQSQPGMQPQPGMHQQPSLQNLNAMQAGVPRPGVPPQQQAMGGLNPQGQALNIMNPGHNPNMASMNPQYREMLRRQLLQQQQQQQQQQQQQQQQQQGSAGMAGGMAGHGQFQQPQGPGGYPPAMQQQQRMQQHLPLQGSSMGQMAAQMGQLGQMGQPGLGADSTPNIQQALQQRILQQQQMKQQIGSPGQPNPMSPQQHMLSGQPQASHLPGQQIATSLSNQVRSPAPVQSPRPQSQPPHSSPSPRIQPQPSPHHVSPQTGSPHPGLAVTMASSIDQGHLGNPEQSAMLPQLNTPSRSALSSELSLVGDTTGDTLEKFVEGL

The ΔTm is the change in melting temperature against a reference sample. Regarding `COc1ccccc1S(=O)(=O)N(C)c1ccc2c3c(cccc13)C(=O)N2C`, the shift in melting temperature (ΔTm) in series [1] worked out at 1.06 °C. The Activity in series [2] is 90.4%.

In the case of `CN1C(=O)c2cccc3c(NCc4ccccc4)ccc1c23`, the thermal shift (ΔTm) was 2.7 °C in series [1], -0.9 °C in [3], 1.92 °C in series [4] and 1.6 °C in series [5].

Usually IC50 stands for the concentration needed to halve the response being measured. Turning to `CN1C(=O)c2cccc3c(NS(=O)(=O)c4ccccc4)ccc1c23`, the shift in melting temperature (ΔTm) in [1] was 5.72 °C; in [3], 1.93 °C; in [4] it was -0.31 °C; in series [5], 1.51 °C. Further, the IC50 in series [6] came out at 0.709 µM; in series [7], 2.62 µM.

With `CN1C(=O)c2cccc3c(NC(=O)c4ccccc4)ccc1c23`, the thermal shift (ΔTm) amounted to 2.17 °C in [1], 4.1 °C in series [3], 2.17 °C in [4] and 0.93 °C in series [5].

As usually defined, the inhibition is the change of the read-out against control, counted positive when it falls. A higher inhibition goes with a strong effect. In the case of `COc1ccccc1S(=O)(=O)Nc1ccc2c3c(cc(-c4ccc(C)o4)cc13)C(=O)N2C`, the values for the IC50 in [6] and in [7] were 0.0548 µM and 47 µM, respectively. The compound further yielded an inhibition at 1 µM in [8] of 58.5%. The Papp at 10 µM in series [9] was 0.06 nm/s.

For the compound `CC(Nc1ccc2c3c(cccc13)C(=O)N2C)c1ccccc1` (stereo not drawn), the ΔTm in series [1] came out at 3.15 °C; in series [3], 4.33 °C; in series [4] it was 0.13 °C; in [5], 0.55 °C.

For `COc1ccc(Cl)cc1S(=O)(=O)Nc1ccc2c3c(cc(-c4cnn(C5CC5)c4)cc13)C(=O)N2C`, the Activity in [2] is 64.9%.

With `CN1C(=O)c2cccc3c(S(=O)(=O)Nc4ccccc4)ccc1c23`, the shift in melting temperature (ΔTm) was 2.19 °C in [1], 0.47 °C in [3], -0.03 °C in series [4] and 0.53 °C in series [5].

Turning to `CN1C(=O)c2cccc3c(NS(=O)(=O)c4c(Cl)cccc4Cl)ccc1c23`, the shift in melting temperature (ΔTm) in series [1] worked out at 2.75 °C. Further, in series [2], the Activity worked out at 91.1%.

For the compound `CN1C(=O)c2ccnc3c(NS(=O)(=O)c4ccc(Cl)cc4F)ccc1c23`, the ΔTm in series [1] was 2.31 °C. The Activity in series [2] was 87.4%.
